US10988477B2 (Merck Patent GmbH, priority 2018, dated 2021)
Where two headings read alike, the source gives them in different places.

Assays:
[1] = biological target: intracellular GCN2 (phosphorylation of the GCN2 substrate eIF2α) (Homo sapiens, UniProt Q9P2K8); test: GCN2 cellular inhibition assay (AlphaScreen SureFire P-eIF2α Ser51, borrelidin-treated U2OS cells); type: cell-based
Summary of the method: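 Compound effect on GCN2 is gauged by eIF2α Ser51 phosphorylation in borrelidin-challenged U2OS cells (10 μM, 1 h). Top compound level is 40 μM final.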

[2] = biological target: GCN2 kinase (Homo sapiens, UniProt Q9P2K8); test: GCN2 enzyme inhibition assay (Transcreener ADP2 fluorescence polarization); type: biochemical; conditions: 280 μM ATP; for IC50: compounds of Formula II
Chain of GCN2 kinase (Q9P2K8 whole entry): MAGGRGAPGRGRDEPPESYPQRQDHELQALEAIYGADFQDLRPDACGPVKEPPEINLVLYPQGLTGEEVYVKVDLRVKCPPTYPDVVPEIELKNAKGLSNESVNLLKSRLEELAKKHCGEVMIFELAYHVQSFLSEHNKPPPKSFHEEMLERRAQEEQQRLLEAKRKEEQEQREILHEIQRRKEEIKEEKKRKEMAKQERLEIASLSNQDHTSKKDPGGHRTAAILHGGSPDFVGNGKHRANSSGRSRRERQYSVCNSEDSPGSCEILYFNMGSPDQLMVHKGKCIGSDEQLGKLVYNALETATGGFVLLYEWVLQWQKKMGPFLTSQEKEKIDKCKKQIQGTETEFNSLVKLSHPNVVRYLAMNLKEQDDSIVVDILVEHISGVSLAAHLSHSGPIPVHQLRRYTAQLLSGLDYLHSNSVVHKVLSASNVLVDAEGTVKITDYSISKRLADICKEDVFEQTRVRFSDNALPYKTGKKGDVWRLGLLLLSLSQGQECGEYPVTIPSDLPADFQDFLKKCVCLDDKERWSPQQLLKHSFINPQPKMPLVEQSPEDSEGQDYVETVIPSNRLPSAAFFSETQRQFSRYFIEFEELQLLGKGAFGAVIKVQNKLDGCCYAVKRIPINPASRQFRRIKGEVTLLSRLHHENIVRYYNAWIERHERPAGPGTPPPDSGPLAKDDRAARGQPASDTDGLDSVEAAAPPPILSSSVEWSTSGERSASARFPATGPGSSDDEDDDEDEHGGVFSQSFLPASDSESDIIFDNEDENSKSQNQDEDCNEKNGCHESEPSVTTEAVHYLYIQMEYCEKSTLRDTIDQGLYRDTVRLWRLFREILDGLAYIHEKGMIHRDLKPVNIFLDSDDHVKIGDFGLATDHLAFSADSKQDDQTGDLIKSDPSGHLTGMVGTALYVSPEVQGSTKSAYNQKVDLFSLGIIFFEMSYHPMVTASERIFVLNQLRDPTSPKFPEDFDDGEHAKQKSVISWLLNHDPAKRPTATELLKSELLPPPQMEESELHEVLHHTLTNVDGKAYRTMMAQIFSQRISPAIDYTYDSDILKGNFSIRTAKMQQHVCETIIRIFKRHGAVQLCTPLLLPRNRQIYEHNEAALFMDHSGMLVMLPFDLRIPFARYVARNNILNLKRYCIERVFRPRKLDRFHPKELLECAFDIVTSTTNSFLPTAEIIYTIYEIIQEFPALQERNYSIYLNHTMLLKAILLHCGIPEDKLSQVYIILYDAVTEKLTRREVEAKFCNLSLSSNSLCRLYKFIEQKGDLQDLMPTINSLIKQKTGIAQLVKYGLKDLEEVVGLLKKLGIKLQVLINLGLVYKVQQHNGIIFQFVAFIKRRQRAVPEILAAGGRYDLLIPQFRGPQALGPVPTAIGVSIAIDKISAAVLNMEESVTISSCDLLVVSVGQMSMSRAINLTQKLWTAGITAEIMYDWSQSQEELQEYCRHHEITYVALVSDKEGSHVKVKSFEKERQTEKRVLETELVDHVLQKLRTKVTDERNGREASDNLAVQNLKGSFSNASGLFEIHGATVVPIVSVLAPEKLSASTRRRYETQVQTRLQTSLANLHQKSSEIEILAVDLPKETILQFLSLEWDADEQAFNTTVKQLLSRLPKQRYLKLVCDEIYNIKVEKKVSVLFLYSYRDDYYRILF
Summary of the method: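 ADP formation read by Transcreener FP after a 1 h, 25 °C kinase reaction containing 280 μM ATP, 200 μM (RS)7 substrate and 4 nM GCN2, pH 7.5 Tris buffer. Compounds (0–8 μM final) were added 10 min before ATP. Percent inhibition gave IC50 and apparent Ki via tight-binding fit.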

[3] = compounds of Formula II, biomarker assay, phosphorylated eIF2α Ser51 in borrelidin-treated U2OS cells
[4] = compounds of Formula III, U2OS cells, 10 μM borrelidin, 1 h, read-out: GCN2 Biomarker (IC50)
[5] = compounds of Formula III, 4 nM GCN2 kinase
[6] = compounds of Formula IV, biomarker assay, phosphorylated eIF2α Ser51 in borrelidin-treated U2OS cells
[7] = Enzyme activity for compounds of Formula IV, Ki(app), 25° C.

Chain of intracellular GCN2 (phosphorylation of the GCN2 substrate eIF2α) (Q9P2K8 whole entry): as above

IC50 [1, 4] [nM]	Ki [2, 5] [nM]	IC50 [1, 6] [nM]	Ki [2, 7] [nM]	SMILES	other results
				Cc1nn(C)cc1[C@@H]1CN(c2cc(-c3cnc4ccc(C(F)(F)F)nn34)ncn2)C[C@H](C)O1 [II-759, (2R,6S)-2-(1,3-dimethyl-1H-pyrazol-4-yl)-6-methyl-4-(6-(6-(trifluoromethyl)imidazo[1,2-b]pyridazin-3-yl)pyrimidin-4-yl)morpholine]	IC50 [1, 3]: > 5000 nM; IC50 ([2]; 4 nM GCN2 kinase): 10 to 1000 nM
				Cc1[nH]ncc1C1CN(c2cc(-c3cnc4ccc(C(F)(F)F)nn34)ncn2)CC(C)O1 (centres unmarked) [II-762, 2-methyl-6-(5-methyl-1H-pyrazol-4-yl)-4-(6-(6-(trifluoromethyl)imidazo[1,2-b]pyridazin-3-yl)pyrimidin-4-yl)morpholine]	IC50 [1, 3]: 500 to 5000 nM; IC50 ([2]; 4 nM GCN2 kinase): 10 to 1000 nM
				Cc1[nH]ncc1[C@H]1CN(c2cc(-c3cnc4ccc(C(F)(F)F)nn34)ncn2)C[C@H](C)O1 [II-765, (2S,6S)-2-methyl-6-(5-methyl-1H-pyrazol-4-yl)-4-(6-(6-(trifluoromethyl)imidazo[1,2-b]pyridazin-3-yl)pyrimidin-4-yl)morpholine]	IC50 [1, 3]: > 5000 nM; IC50 ([2]; 4 nM GCN2 kinase): 10 to 1000 nM
				Cc1[nH]ncc1[C@@H]1CN(c2cc(-c3cnc4ccc(C(F)(F)F)nn34)ncn2)C[C@@H](C)O1 [II-766, (2R,6R)-2-methyl-6-(5-methyl-1H-pyrazol-4-yl)-4-(6-(6-(trifluoromethyl)imidazo[1,2-b]pyridazin-3-yl)pyrimidin-4-yl)morpholine]	IC50 [1, 3]: > 5000 nM; IC50 ([2]; 4 nM GCN2 kinase): 10 to 1000 nM
				Cc1[nH]ncc1[C@@H]1CN(c2cc(-c3cnc4ccc(C(F)(F)F)nn34)ncn2)C[C@H](C)O1 [II-767, (2S,6R)-2-methyl-6-(5-methyl-1H-pyrazol-4-yl)-4-(6-(6-(trifluoromethyl)imidazo[1,2-b]pyridazin-3-yl)pyrimidin-4-yl)morpholine]	IC50 [1, 3]: < 500 nM; IC50 ([2]; 4 nM GCN2 kinase): 10 to 1000 nM
				C[C@H]1[C@H](CNS(C)(=O)=O)N(C2CC2)CCN1c1cc(-c2cnc3ccc(C(F)F)nn23)ncn1 [II-769, N-(((2S,3S)-1-cyclopropyl-4-(6-(6-(difluoromethyl)imidazo[1,2-b]pyridazin-3-yl)pyrimidin-4-yl)-3-methylpiperazin-2-yl)methyl)methanesulfonamide]	IC50 [1, 3]: 500 to 5000 nM; IC50 ([2]; 4 nM GCN2 kinase): 10 to 1000 nM
				C[C@@H]1[C@@H](CNS(C)(=O)=O)N(C2CC2)CCN1c1cc(-c2cnc3ccc(C(F)F)nn23)ncn1 [II-770, N-(((2R,3R)-1-cyclopropyl-4-(6-(6-(difluoromethyl)imidazo[1,2-b]pyridazin-3-yl)pyrimidin-4-yl)-3-methylpiperazin-2-yl)methyl)methanesulfonamide]	IC50 [1, 3]: 500 to 5000 nM; IC50 ([2]; 4 nM GCN2 kinase): 10 to 1000 nM
> 5000	10 to 1000			CC(=O)N1CCN(c2cc(-c3cnn4ccc(C(F)F)nc34)ncn2)CC1 [III-1, 1-[4-[6-[5-(Difluoromethyl)pyrazolo[1,5-a]pyrimidin-3-yl]pyrimidin-4-yl]piperazin-1-yl]ethanone]	
< 500	< 10			CS(=O)(=O)NCC1CCCN(c2cc(-c3cnn4ccc(C(F)F)nc34)ncn2)C1 (centres unmarked) [III-2, N-[[1-[6-[5-(Difluoromethyl)pyrazolo[1,5-a]pyrimidin-3-yl]pyrimidin-4-yl]-3-piperidyl]methyl]methanesulfonamide]	
> 5000	10 to 1000			O=C1CCN(c2cc(-c3cnn4ccc(C(F)(F)F)nc34)ncn2)CCN1 [III-3, 1-[6-[5-(Trifluoromethyl)pyrazolo[1,5-a]pyrimidin-3-yl]pyrimidin-4-yl]-1,4-diazepan-5-one]	
< 500	< 10			CS(=O)(=O)NC[C@@H]1CN(c2cc(-c3cnn4ccc(C(F)F)nc34)ncn2)CCO1 [III-4, N-[[(2S)-4-[6-[5-(Difluoromethyl)pyrazolo[1,5-a]pyrimidin-3-yl]pyrimidin-4-yl]morpholin-2-yl]methyl]methanesulfonamide]	
> 5000	10 to 1000			CS(=O)(=O)NC[C@H]1CN(c2cc(-c3cnn4cc(F)c(C(F)F)nc34)ncn2)CCO1 [III-5, N-[[(2R)-4-[6-[5-(Difluoromethyl)-6-fluoro-pyrazolo[1,5-a]pyrimidin-3-yl]pyrimidin-4-yl]morpholin-2-yl]methyl]methanesulfonamide]	
500 to 5000	< 10			CS(=O)(=O)NC[C@@H]1CN(c2cc(-c3cnn4ccc(C(F)F)nc34)ccn2)CCO1 [III-6, N-[[(2S)-4-[4-[5-(Difluoromethyl)pyrazolo[1,5-a]pyrimidin-3-yl]-2-pyridyl]morpholin-2-yl]methyl]methanesulfonamide]	
500 to 5000	< 10			CC1CN(c2cc(-c3cnn4ccc(C(F)F)nc34)ccn2)CC(CNS(C)(=O)=O)C1(F)F (centres unmarked) [III-7, N-[[1-[4-[5-(Difluoromethyl)pyrazolo[1,5-a]pyrimidin-3-yl]-2-pyridyl]-4,4-difluoro-5-methyl-3-piperidyl]methyl]methanesulfonamide]	
< 500	< 10			CS(=O)(=O)NC[C@@H]1CN(c2cc(-c3cnn4cc(F)c(C(F)F)nc34)ncn2)CCO1 [III-10, N-[[(2S)-4-[6-[5-(Difluoromethyl)-6-fluoro-pyrazolo[1,5-a]pyrimidin-3-yl]pyrimidin-4-yl]morpholin-2-yl]methyl]methanesulfonamide]	
< 500	< 10			C[C@H]1CN(c2cc(-c3cnn4cc(F)c(C(F)F)nc34)ncn2)C[C@@H](CNS(C)(=O)=O)C1(F)F [III-11, N-[[(3S,5S)-1-[6-[5-(Difluoromethyl)-6-fluoro-pyrazolo[1,5-a]pyrimidin-3-yl]pyrimidin-4-yl]-4,4-difluoro-5-methyl-3-piperidyl]methyl]methanesulfonamide]	
< 500	< 10			C[C@H]1CN(c2cc(-c3cnn4ccc(C(F)F)nc34)ncn2)C[C@@H](CNS(C)(=O)=O)C1(F)F [III-12, N-[[(3S,5S)-1-[6-[5-(Difluoromethyl)pyrazolo[1,5-a]pyrimidin-3-yl]pyrimidin-4-yl]-4,4-difluoro-5-methyl-3-piperidyl]methyl]methanesulfonamide]	
> 5000	> 1000			O=C1CCCC2CN(c3cc(-c4cnn5cccnc45)ccn3)CCN12 (centres unmarked) [III-16, 2-(4-(pyrazolo[1,5-a]pyrimidin-3-yl)pyridin-2-yl)octahydro-6H-pyrido[1,2-a]pyrazin-6-one]	
		> 5000	100 to 1000	CC(=O)N1CCN(c2cccc(-c3cnc4cnccn34)n2)CC1 [IV-2, 1-(4-(6-(Imidazo[1,2-a]pyrazin-3-yl)pyridin-2-yl)piperazin-1-yl)ethan-1-one]	
		< 500	< 10	FC(F)(F)c1cn2c(-c3nccc(N4CCOC(c5cn[nH]c5)C4)n3)cnc2cn1 (centres unmarked) [IV-3, 2-(1H-Pyrazol-4-yl)-4-(2-(6-(trifluoromethyl)imidazo[1,2-a]pyrazin-3-yl)pyrimidin-4-yl)morpholine]	
		500 to 5000	< 10	c1cc(N2CCOC(c3cn[nH]c3)C2)nc(-c2cnc3cnc(C4CC4)cn23)n1 (centres unmarked) [IV-4, 4-(2-(6-Cyclopropylimidazo[1,2-a]pyrazin-3-yl)pyrimidin-4-yl)-2-(1H-pyrazol-4-yl)morpholine]	
		500 to 5000	10 to 100	CC1CN(c2ccnc(-c3cnc4cnc(Cl)cn34)n2)CC(CNS(C)(=O)=O)C1(F)F (centres unmarked) [IV-5, N-((1-(2-(6-Chloroimidazo[1,2-a]pyrazin-3-yl)pyrimidin-4-yl)-4,4-difluoro-5-methylpiperidin-3-yl)methyl)methanesulfonamide]	
		< 500	< 10	Clc1cn2c(-c3nccc(N4CCOC(c5cn[nH]c5)C4)n3)cnc2cn1 (centres unmarked) [IV-6, 4-(2-(6-Chloroimidazo[1,2-a]pyrazin-3-yl)pyrimidin-4-yl)-2-(1H-pyrazol-4-yl)morpholine]	
		< 500	< 10	CC1CN(c2ccnc(-c3cnc4cnc(C(F)(F)F)cn34)n2)CC(c2cn[nH]c2)O1 (centres unmarked) [IV-10, 2-Methyl-6-(1H-pyrazol-4-yl)-4-(2-(6-(trifluoromethyl)imidazo[1,2-a]pyrazin-3-yl)pyrimidin-4-yl)morpholine]	
		> 5000	100 to 1000	C[C@H]1CN(c2ccnc(-c3cnc4cnc(C(F)(F)F)cn34)n2)C[C@@H](CNS(C)(=O)=O)C1(F)F [IV-17, N-(((3S,5S)-4,4-Difluoro-5-methyl-1-(2-(6-(trifluoromethyl)imidazo[1,2-a]pyrazin-3-yl)pyrimidin-4-yl)piperidin-3-yl)methyl)methanesulfonamide]	
		500 to 5000	< 10	N#Cc1cn2c(-c3nccc(N4CCOC(c5cn[nH]c5)C4)n3)cnc2cn1 (centres unmarked) [IV-18, 3-(4-(2-(1H-Pyrazol-4-yl)morpholino)pyrimidin-2-yl)imidazo[1,2-a]pyrazine-6-carbonitrile]	
		< 500	< 10	Brc1cn2c(-c3nccc(N4CCOC(c5cn[nH]c5)C4)n3)cnc2cn1 (centres unmarked) [IV-19, 4-(2-(6-Bromoimidazo[1,2-a]pyrazin-3-yl)pyrimidin-4-yl)-2-(1H-pyrazol-4-yl)morpholine]	
		500 to 5000	10 to 100	Cc1cn2c(-c3nccc(N4CCOC(c5cn[nH]c5)C4)n3)cnc2cn1 (centres unmarked) [IV-20, 4-(2-(6-Methylimidazo[1,2-a]pyrazin-3-yl)pyrimidin-4-yl)-2-(1H-pyrazol-4-yl)morpholine]	
